Measurements taken from article PMC10036753, “Orally disintegrating tablets containing famotidine nanoparticles provide high intestinal absorbability via the energy-dependent endocytosis pathway” (Frontiers in Bioengineering and Biotechnology, 2023).

Columns and labels:
[1] = without bead-milling treatment
Description: First, 3 mL of each FAM dispersion were incubated in 5 mL test tubes in the dark at 20°C for 28 days. Images of the FAM dispersions were captured with a digital camera. The dispersions (50 μL) were withdrawn from 5 mm under the surface at the indicated time intervals (0, 7, 14, 21, and 28 days), and the FAM concentration was measured using the HPLC methods described above. In this study, the difference in FAM concentrations before and after the start of the experiment was estimated, and the changes in FAM levels on the surface were defined as the dispersibility of the FAM dispersions.

[2] = ref Jha et al., 2014; cited from earlier work
H2 receptors = details: ref Hassan et al., 1990; Patel and Patel, 2013; cited from earlier work
[3] = oral, 40 mg daily; ref Lyon, 1986; Ramchandran et al., 2011; cited from earlier work
[4] = ref Khalifa and Abdul Rasool, 2017; cited from earlier work
[5] = Pharmacokinetic study of FAM tablet in the rat; type: in vivo, Wistar rats; details: Wistar, plasma, intravenous, single injection of FAM solution in DMSO (0.04 mg/kg) into the femoral vein
Description: FAM concentration was determined by HPLC using an LC-20AT HPLC system (Shimadzu Corp., Kyoto, Japan). A Luna® 5 µm C18 column (100 Å, 150 × 4.6 mm, GL Science Co., Inc., Tokyo, Japan) was used for the measurement, and the mobile phase [one-heptanesulfonic acid sodium salt/acetonitrile/methanol (25/6/1)] was followed at 0.25 mL/min. The sample was mixed with an internal standard (methyl p-hydroxybenzoate) in methanol and 10 µL of the mixture was injected into the HPLC system using an SIL-20AC HPLC auto injector. In this study, the FAM levels were measured at 254 nm (wavelength for detection).
Blood (200 μL) was collected from the right jugular vein at the indicated time intervals (0, 10, 20, 30, and 360 min). The collected blood was centrifuged at 800 × g for 15 min at 4°C, and the supernatant was used for measurement.

[6] = Particle size distribution of FAM dispersions and redispersed FAM tablets (NanoSight LM10); type: physicochemical
Description: The characterization of the FAM tablets and their redispersion were evaluated in accordance with our previous study ([Deguchi et al., 2021]; [Nagai et al., 2022]). Briefly, the shape and dimensions of the tablets were analyzed using ImageJ image analysis software 1.53. Hardness was measured using a Force Tester MCT-2150 (A&D Co., Ltd., Toshimaku, Japan), and friability was measured using an Oriental Reaction Motor (ORIENTAL MOTOR Co., Ltd., Tokyo, Japan). The disintegration of FAM tablets was evaluated using NT-2H (TOYAMA SANGO Co. Ltd., Osaka, Japan). The friability and disintegration of the FAM tablets were measured according to the Japanese Pharmacopoeia (18th edition). The FAM tablets were dispersed in 10 mL of purified water and the redispersion, solubility, viscosity, and intestinal penetration were measured. The particle distributions of the FAM dispersions and redispersed FAM tablets were measured by […] NanoSight LM10 (Quantum Design Japan, Tokyo, Japan), and the measurement time, wavelength, and viscosity were set to 60 s, 405 nm (blue) and 1.27 mPa s, respectively. Scanning electron microscopy (SEM) images were obtained using NeoScope™ JCM-7000 (JEOL Ltd., Tokyo, Japan). […] The viscosity of the redispersed FAM tablet was measured at 20°C–40°C using an SV-1A viscometer (A&D Company, Limited, Tokyo, Japan).

NC(N)=Nc1nc(CSCCC(N)=NS(N)(=O)=O)cs1 [FAM, Famotidine]
Time after preparation at which FAM was precipitated [1]: 24 h | Intestinal penetration after oral administration [2]: < 50% | Inhibitory effect relative to cimetidine (H2 receptors): 20 fold | Inhibitory effect relative to ranitidine (H2 receptors): 7.5 fold | Tolerability [3]: well tolerated | BCS classification [4]: class III | Vd ([5]; read-out: Distribution volume (V d)): 0.064 L | k el ([5]; read-out: Elimination rate constant (k e) (converted)): 2.17e-05 s⁻¹ | Mean particle size of FAM ([6]; dispersion with bead-milling treatment): 108 ± 5.7 nm | Mean particle size of FAM ([6]; dispersion without bead-milling treatment): 23.7 ± 2.1 µm
